Laboratory results as given in US12503475B2 (Centessa Pharmaceuticals (UK) Limited, priority 2020, dated 2025).

Biological target: T1, human orexin type 2 receptor (hOX2R) (Homo sapiens, UniProt O43614)
T1 construct: expressed in transfected cells
T1 sequence (O43614 1-444): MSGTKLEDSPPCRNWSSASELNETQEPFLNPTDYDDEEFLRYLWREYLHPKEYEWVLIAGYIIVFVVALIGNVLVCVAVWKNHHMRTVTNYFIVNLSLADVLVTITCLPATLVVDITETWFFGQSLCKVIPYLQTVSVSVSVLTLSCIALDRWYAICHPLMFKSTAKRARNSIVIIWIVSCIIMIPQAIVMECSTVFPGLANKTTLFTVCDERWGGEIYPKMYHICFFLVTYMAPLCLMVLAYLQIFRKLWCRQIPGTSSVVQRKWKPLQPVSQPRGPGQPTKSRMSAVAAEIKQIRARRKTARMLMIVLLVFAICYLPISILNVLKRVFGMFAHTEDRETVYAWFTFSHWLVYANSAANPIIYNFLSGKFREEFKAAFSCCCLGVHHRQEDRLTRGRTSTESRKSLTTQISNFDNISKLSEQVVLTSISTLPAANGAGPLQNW
Assay: Measurement of orexin type 2 receptor agonist activity (FLIPR calcium fluorescence)
Type: cell-based
Settings: CHO cells expressing hOX2R, FLIPR calcium fluorescence; for EC50: read-out: hOx2 pEC50 (converted); for Emax: CHO, read-out: hOx2 Emax (%)
How it was run: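 Agonism was read as fluorescence in cells stably expressing human OX2R. E. is the response at 10 μM relative to orexin A as full agonist (100%).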

## CC(C)(O)C(=O)N1CC2(CC2)[C@H](NS(=O)(=O)C(F)F)[C@@H]1Cc1cccc(-c2cc(F)cc(F)c2)c1F [Compound 195, 1,1-difluoro-N-((6S,7S)-5-(2-hydroxy-2-methylpropanoyl)-6-((2,3′,5′-trifluoro-[1,1′-biphenyl]-3-yl)methyl)-5-azaspiro[2.4]heptan-7-yl)methanesulfonamide]
  EC50: 1 to 10 nM
  Emax: 90 to 100%

## O=C([C@H]1CCO1)N1CC2(CC2)[C@H](NS(=O)(=O)CF)[C@@H]1Cc1cccc(-c2cccc(C(F)F)c2)c1F [Compound 196, N-((6S,7S)-6-((3′-(difluoromethyl)-2-fluoro-[1,1′-biphenyl]-3-yl)methyl)-5-((R)-oxetane-2-carbonyl)-5-azaspiro[2.4]heptan-7-yl)-1-fluoromethanesulfonamide]
  EC50: 0.0794 to 1 nM
  Emax: 90 to 100%

## O=C([C@H]1CCO1)N1CC2(CC2)[C@H](NS(=O)(=O)CF)[C@@H]1Cc1cccc(-c2cccc(C(F)(F)F)c2)c1F [Compound 197, 1-fluoro-N-((6S,7S)-6-((2-fluoro-3′-(trifluoromethyl)-[1,1′-biphenyl]-3-yl)methyl)-5-((R)-oxetane-2-carbonyl)-5-azaspiro[2.4]heptan-7-yl)methanesulfonamide]
  EC50: 10 to 100 nM
  Emax: 80 to 90%

## O=C([C@@H](O)C(F)F)N1CC2(CC2)[C@H](NS(=O)(=O)C(F)F)[C@@H]1Cc1cccc(-c2ccccc2)c1F [Compound 198, N-((6S,7S)-5-((R)-3,3-difluoro-2-hydroxypropanoyl)-6-((2-fluoro-[1,1′-biphenyl]-3-yl)methyl)-5-azaspiro[2.4]heptan-7-yl)-1,1-difluoromethanesulfonamide]
  EC50: 1 to 10 nM
  Emax: 90 to 100%

## [2H]C([2H])([2H])c1cccc(-c2cccc(C[C@H]3[C@@H](NS(=O)(=O)C(F)F)C4(CC4)CN3C(=O)[C@H]3CCO3)c2F)c1 [Compound 199, 1,1-difluoro-N-((6S,7S)-6-((2-fluoro-3′-(methyl-d3)-[1,1′-biphenyl]-3-yl)methyl)-5-((R)-oxetane-2-carbonyl)-5-azaspiro[2.4]heptan-7-yl)methanesulfonamide]
  EC50: 0.0794 to 1 nM
  Emax: 90 to 100%

## O=C(NCC(F)(F)F)N1CC2(CC2)[C@H](NS(=O)(=O)C(F)F)[C@@H]1Cc1cccc(-c2ccccc2)c1F [Compound 200, (6S,7S)-7-((difluoromethyl)sulfonamido)-6-((2-fluoro-[1,1′-biphenyl]-3-yl)methyl)-N-(2,2,2-trifluoroethyl)-5-azaspiro[2.4]heptane-5-carboxamide]
  EC50: 1 to 10 nM
  Emax: 90 to 100%

## O=C([C@H]1C[C@@H](F)C1)N1CC2(CC2)[C@H](NS(=O)(=O)C(F)F)[C@@H]1Cc1cccc(-c2ccccc2)c1F [Compound 201, 1,1-difluoro-N-((6S,7S)-6-((2-fluoro-[1,1′-biphenyl]-3-yl)methyl)-5-((1s,3s)-3-fluorocyclobutane-1-carbonyl)-5-azaspiro[2.4]heptan-7-yl)methanesulfonamide]
  EC50: 1 to 10 nM
  Emax: 90 to 100%

## C[C@]1(C(=O)N2CC3(CC3)[C@H](NS(=O)(=O)CF)[C@@H]2Cc2cccc(-c3ccccc3)c2F)CCO1 [Compound 202, 1-fluoro-N-((6S,7S)-6-((2-fluoro-[1,1′-biphenyl]-3-yl)methyl)-5-((R)-2-methyloxetane-2-carbonyl)-5-azaspiro[2.4]heptan-7-yl)methanesulfonamide]
  EC50: 1 to 10 nM
  Emax: 90 to 100%

## C[C@@]1(C(=O)N2CC3(CC3)[C@H](NS(=O)(=O)CF)[C@@H]2Cc2cccc(-c3ccccc3)c2F)CCO1 [Compound 203, 1-fluoro-N-((6S,7S)-6-((2-fluoro-[1,1′-biphenyl]-3-yl)methyl)-5-((S)-2-methyloxetane-2-carbonyl)-5-azaspiro[2.4]heptan-7-yl)methanesulfonamide]
  EC50: 1 to 10 nM
  Emax: 90 to 100%
